Measurements from paper PMC10294832, “Investigation of Naphthyl–Polyamine Conjugates as Antimicrobials and Antibiotic Enhancers” (Antibiotics, 2023).
“And” between values parts separate entries of the source, which are not always exact repeats. Equal entries are not always repeated. Where two headings read alike, the source gives them in different places.

How the values were obtained:
[1] = tested on: S. aureus (ATCC 25,923 or ATCC 29213); assay: Antimicrobial MIC, S. aureus; assay type: cell-based, Staphylococcus aureus; details: mean (n = 3)
Protocol: (§1) The susceptibility of bacterial strains S. aureus (ATCC 25,923 or 29213), E. coli (ATCC 25922), and P. aeruginosa (ATCC 27853) to antibiotics and compounds was determined according to previously reported protocols. Additional antimicrobial evaluation against MRSA (ATCC 43300), Klebsiella pneumoniae (ATCC 700603), Acinetobacter baumannii (ATCC 19606), Candida albicans (ATCC 90028), and Cryptococcus neoformans (ATCC 208821) was undertaken at the Community for Open Antimicrobial Drug Discovery at The University of Queensland (Australia) according to their standard protocols as reported previously.

MRSA (ATCC 43300) = assay: Antimicrobial MIC, MRSA; assay type: cell-based, methicillin-resistant Staphylococcus aureus; details: MRSA (ATCC 43300), mean (n = 2), read-out: MIC MRSA
Protocol: as §1

[2] = tested on: P. aeruginosa (PAO1 or ATCC 27853); assay: Antimicrobial MIC, P. aeruginosa; assay type: cell-based; details: Pseudomonas aeruginosa; P. aeruginosa (PAO1 or ATCC 27853); mean (n = 3); read-out: MIC P. a
Protocol: as §1

E. coli (ATCC 25922) [3] = assay: Antimicrobial MIC, E. coli; assay type: cell-based, Escherichia coli; details: mean (n = 2)
Protocol: as §1

[4] = tested on: K. pneumoniae (ATCC 700603); assay: Antimicrobial MIC, K. pneumoniae; assay type: cell-based; details: Klebsiella pneumoniae, ATCC700603, mean (n = 2)
Protocol: as §1

[5] = tested on: A. baumannii (ATCC 19606); assay: Antimicrobial MIC, A. baumannii; assay type: cell-based, Acinetobacter baumannii; details: mean (n = 2)
Protocol: as §1

C. albicans (ATCC 90028) = assay: Antifungal MIC, C. albicans; assay type: cell-based; details: Candida albicans, ATCC90028, mean (n = 2)
Protocol: as §1

[6] = tested on: C. neoformans (ATCC 208821); assay: Antifungal MIC, C. neoformans; assay type: cell-based, Cryptococcus neoformans; details: mean (n = 2)
Protocol: as §1

Cytotoxicity assay = assay type: cell-based, human; details: human, HEK293 human embryonic kidney cells, concentration at 50% cytotoxicity on HEK293 cells; mean (n = 2)
Protocol: Cytotoxicity assays were conducted using the protocols previously reported.

human red blood cells = assay: Hemolytic assay; assay type: cell-based; details: concentration at 10% hemolytic activity on human red blood cells; mean (n = 2)
Protocol: Hemolysis assays were conducted using the protocols previously reported.

[7] = tested on: P. aeruginosa (ATCC 27853); assay: Enhancement of doxycycline activity; assay type: cell-based, Pseudomonas aeruginosa; details: for Dox/P.a: concentration required to restore doxycycline activity (combination MIC): doxycycline fixed at 4.5 µM (2 µg/mL), P. aeruginosa (ATCC 27853); for Dox/P.a fold change: ratio between intrinsic MIC of test compound and combination MIC, doxycycline 4.5 µM, P. aeruginosa
E. coli (ATCC 25922) [8] = assay: Enhancement of erythromycin activity; assay type: cell-based, Escherichia coli; details: for Eryth/E.c: concentration required to restore erythromycin activity (combination MIC): erythromycin fixed at 10.9 µM (8 µg/mL), E. coli (ATCC 25922); for Eryth/E.c fold change: ratio between intrinsic MIC of test compound and combination MIC, erythromycin 10.9 µM, E. coli
Protocol: Restoring enhancer concentrations were determined using previously reported protocols.

[9] = Escherichia coli, ATCC25922, E. coli (ATCC 25922)
[10] = Acinetobacter baumannii, ATCC19606, A. baumannii (ATCC 19606)
[11] = Cryptococcus neoformans, ATCC208821, C. neoformans (ATCC 208821)

| MIC ([1]; Staphylococcus aureus) [µM] | MIC (MRSA (ATCC 43300); Staphylococcus aureus) [µM] | MIC [2] [µM] | MIC (E. coli (ATCC 25922) [3]; [9]) [µM] | MIC [4] [µM] | MIC [5, 10] [µM] | MIC (C. albicans (ATCC 90028)) [µM] | MIC [6, 11] [µM] | Dox/P.a: concentration required to restore doxycycline activity (combination MIC) [7] | Eryth/E.c: concentration required to restore erythromycin activity (combination MIC) (E. coli (ATCC 25922) [8]) [µM] | MIC [1] [µM] | MIC (E. coli (ATCC 25922) [3]; E. coli (ATCC 25922)) [µM] | MIC (MRSA (ATCC 43300)) [µM] | MIC ([5]; A. baumannii (ATCC 19606)) [µM] | MIC ([6]; C. neoformans (ATCC 208821)) [µM] | Compound | IC50 (Cytotoxicity assay) [µM] | Hemolysis HC10 (human red blood cells) [µM] | Dox/P.a fold change [7] [fold] | Eryth/E.c fold change (E. coli (ATCC 25922) [8]) [fold] |
| --- | --- | --- | --- | --- | --- | --- | --- | --- | --- | --- | --- | --- | --- | --- | --- | --- | --- | --- | --- |
| > 200 | > 34.7 | 200 | 200 | > 34.7 | > 34.7 | > 34.7 | > 34.7 | 12.5 µM | 200 | – | – | – | – | – | O=C(CCC(=O)Nc1cccc2ccccc12)NCCCNCCCCCCCNCCCNC(=O)CCC(=O)Nc1cccc2ccccc12.O=C(O)C(F)(F)F.O=C(O)C(F)(F)F [Compound 18c, N^1,N^7-Bis(3-(4-(naphthalen-1-ylamino)-4-oxobutanamido)propyl)heptane-1,7-diaminium 2,2,2-trifluoroacetate] | > 34.7 | >34.7 | 16 | 1 |
| 107 | > 34.2 | > 107 | > 107 | > 34.2 | > 34.2 | > 34.2 | > 34.2 | > 107 µM | 107 | – | – | – | – | – | O=C(CCC(=O)Nc1cccc2ccccc12)NCCCNCCCCCCCCNCCCNC(=O)CCC(=O)Nc1cccc2ccccc12.O=C(O)C(F)(F)F.O=C(O)C(F)(F)F [Compound 18d, N^1,N^8-Bis(3-(4-(naphthalen-1-ylamino)-4-oxobutanamido)propyl)octane-1,8-diaminium 2,2,2-trifluoroacetate] | > 34.2 | >34.2 | 1 | 1 |
| 104 | 33.2 | 518 | 518 | > 33.2 | > 33.2 | > 33.2 | 33.2 | 207 µM | 51.8 | – | – | – | – | – | O=C(CCC(=O)Nc1cccc2ccccc12)NCCCNCCCCCCCCCCNCCCNC(=O)CCC(=O)Nc1cccc2ccccc12.O=C(O)C(F)(F)F.O=C(O)C(F)(F)F [Compound 18e, N^1,N^10-Bis(3-(4-(naphthalen-1-ylamino)-4-oxobutanamido)propyl)decane-1,10-diaminium 2,2,2-trifluoroacetate] | > 33.2 | >33.2 | 2.5 | 10 |
| 3.12 | ≤ 0.25 | > 100 | 6.3 to 12.5 | > 32 | > 32 | > 32 | ≤ 0.25 | 50.3 µM | 6.29 | 3.15 | 12.5 | – | – | – | O=C(CCC(=O)Nc1cccc2ccccc12)NCCCNCCCCCCCCCCCCNCCCNC(=O)CCC(=O)Nc1cccc2ccccc12.O=C(O)C(F)(F)F.O=C(O)C(F)(F)F [Compound 18f, N^1,N^12-Bis(3-(4-(Naphthalen-1-ylamino)-4-oxobutanamido)propyl)dodecane-1,12-diaminium 2,2,2-trifluoroacetate] | > 32.2 | >32.2 | > 2 | 2 |
| 65.2 | 41.7 | > 130 | 130 | > 41.7 | > 41.7 | > 41.7 | 20.9 | 65.2 µM | 65.2 | – | – | – | – | – | O=C(NCCCNCCCCCCNCCCNC(=O)c1ccc2ccccc2c1)c1ccc2ccccc2c1.O=C(O)C(F)(F)F.O=C(O)C(F)(F)F [Compound 19b, N^1,N^6-Bis(3-(2-naphthamido)propyl)hexane-1,6-diaminium 2,2,2-trifluoroacetate] | > 41.7 | >41.7 | > 2 | 2 |
| 16 | ≤ 0.32 | 32 | 16 | > 41 | > 41 | > 41 | ≤ 0.32 | 4.0 µM and 4.00 µM | 4.0 | – | – | – | – | – | O=C(NCCCNCCCCCCCNCCCNC(=O)c1ccc2ccccc2c1)c1ccc2ccccc2c1.O=C(O)C(F)(F)F.O=C(O)C(F)(F)F [Compound 19c, N^1,N^7-Bis(3-(2-naphthamido)propyl)heptane-1,7-diaminium 2,2,2-trifluoroacetate] | 20.5 | >41.0 | 8 | 4 |
| 7.9 | 40.3 | 126 | 126 | > 40.3 | > 40.3 | > 40.3 | 40.3 | 15.7 µM | 15.7 | – | – | – | – | – | O=C(NCCCNCCCCCCCCNCCCNC(=O)c1ccc2ccccc2c1)c1ccc2ccccc2c1.O=C(O)C(F)(F)F.O=C(O)C(F)(F)F [Compound 19d, N^1,N^8-Bis(3-(2-naphthamido)propyl)octane-1,8-diaminium 2,2,2-trifluoroacetate] | > 40.3 | >40.3 | 8 | 8 |
| 30 | 1.22 | 608 | 122 | 38.9 | 38.9 | 38.9 | 4.86 | 608 µM | 60.8 | – | – | – | – | – | O=C(NCCCNCCCCCCCCCCNCCCNC(=O)c1ccc2ccccc2c1)c1ccc2ccccc2c1.O=C(O)C(F)(F)F.O=C(O)C(F)(F)F [Compound 19e, N^1,N^10-Bis(3-(2-naphthamido)propyl)decane-1,10-diaminium 2,2,2-trifluoroacetate] | 4.75 | >38.9 | 1 | 2 |
| 100 | 0.29 | 300 | 300 | > 37.6 | 0.29 | > 37.6 | 0.29 | 300 µM | 300 | – | – | 0.294 | 0.294 | 0.294 | O=C(NCCCNCCCCCCCCCCCCNCCCNC(=O)c1ccc2ccccc2c1)c1ccc2ccccc2c1.O=C(O)C(F)(F)F.O=C(O)C(F)(F)F [Compound 19f, N^1,N^12-Bis(3-(2-naphthamido)propyl)dodecane-1,12-diaminium 2,2,2-trifluoroacetate] | > 37.6 | >37.6 | 1 | 1 |
| > 200 | > 35.2 | > 200 | 50 | > 35.2 | > 35.2 | > 35.2 | 35.2 | 25 µM | 50 | – | – | – | – | – | O=C(CCC(=O)Nc1ccc2ccccc2c1)NCCCNCCCCCCNCCCNC(=O)CCC(=O)Nc1ccc2ccccc2c1.O=C(O)C(F)(F)F.O=C(O)C(F)(F)F [Compound 20b, N^1,N^6-Bis(3-(4-(naphthalen-2-ylamino)-4-oxobutanamido)propyl)hexane-1,6-diaminium 2,2,2-trifluoroacetate] | > 35.2 | >35.2 | > 8 | 1 |
